Values joined by “and” are separate entries in the source; they are usually repeats but may differ in a detail not shown here. Equal values may be shown once. Toxic doses and inconclusive results are not listed.
System: P388 leukemia ip, CD2F1 mice, survival T/C
Test: NCI In Vivo Anticancer Drug Screen. Data for tumor model P388 Leukemia (intraperitoneal) in CD2F1 (CDF1) mice
Settings: endpoint: median survival time, higher = longer survival
Summary of the method: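 Mice carrying the transplanted tumor received test compound or vehicle. Survival was recorded in each group, and the value is the treated-group measurement divided by that of the vehicle-treated control group.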

[1] = dose: 60.0 mg/kg/injection, schedule: Q01DX005 (ip), vehicle: Klucel (hydroxypropylcellulose) (HPC)
[2] = dose: 120.0 mg/kg/injection, schedule: Q01DX005 (ip), vehicle: Klucel (hydroxypropylcellulose) (HPC)
[3] = dose: 240.0 mg/kg/injection, schedule: Q01DX005 (ip), vehicle: Klucel (hydroxypropylcellulose) (HPC)
[4] = dose: 50.0 mg/kg/injection, schedule: Q01DX009 (ip), vehicle: Klucel (hydroxypropylcellulose) (HPC)
[5] = dose: 100.0 mg/kg/injection, schedule: Q01DX009 (ip), vehicle: Klucel (hydroxypropylcellulose) (HPC)
[6] = dose: 200.0 mg/kg/injection, schedule: Q01DX009 (ip), vehicle: Klucel (hydroxypropylcellulose) (HPC)

COc1ccc(OC)c2c(Cl)cc(NCCCCCCCCNc3cc(Cl)c4c(OC)ccc(OC)c4n3)nc12 was tested, and the T/C (dose: 30.0 mg/kg/injection, schedule: Q01DX005 (ip), vehicle: Klucel (hydroxypropylcellulose) (HPC)) was 101 % of control, the T/C [1] was 101 % of control and the T/C [2] was 100 % of control. The T/C [3] was 100 % of control.
COc1c2c(c(OC)c3c(OC)c4ccccc4c(OC)c13)CC(=O)CC2 was tested, and the T/C (dose: 1.56 mg/kg/injection, schedule: Q01DX009 (ip), vehicle: other) was 105 % of control, the T/C (dose: 3.13 mg/kg/injection, schedule: Q01DX009 (ip), vehicle: other) was 101 % of control and the T/C (dose: 6.25 mg/kg/injection, schedule: Q01DX009 (ip), vehicle: other) was 105 % of control. The T/C (dose: 12.5 mg/kg/injection, schedule: Q01DX009 (ip), vehicle: other) was 101 % of control and the T/C (dose: 25.0 mg/kg/injection, schedule: Q01DX009 (ip), vehicle: other) was 91 % of control.
With O/N=C/C(=NCc1ccccn1)NO the T/C [1] was 107 % of control, the T/C [2] was 103 % of control and the T/C [3] was 103 % of control.
CC(=O)OC12CC3CCC4C(CCC5(C)C(C(C)CCCC(C)C)CCC45)C3(C)CC1C(Cl)C2=O (stereo unspecified) was tested, and the T/C (dose: 50.0 mg/kg/injection, schedule: Q01DX005 (ip), vehicle: saline with Tween-80) was 99 % of control, the T/C (dose: 100.0 mg/kg/injection, schedule: Q01DX005 (ip), vehicle: saline with Tween-80) was 96 % of control and the T/C (dose: 200.0 mg/kg/injection, schedule: Q01DX005 (ip), vehicle: saline with Tween-80) was 96 % of control.
For CCCCCCOc1ccc(C(=O)Oc2ccc(OC(=O)c3ccc(N)cc3)cc2)cc1, the T/C [4] was 102 % of control, the T/C [5] was 100 % of control and the T/C [6] was 100 % of control.
In the case of C#Cc1cccc(N=Cc2ccc(C=Nc3cccc(C#C)c3)cc2)c1, the T/C (dose: 6.25 mg/kg/injection, schedule: Q01DX009 (ip), vehicle: saline with Tween-80) is reported as 104 % of control, the T/C (dose: 12.5 mg/kg/injection, schedule: Q01DX009 (ip), vehicle: saline with Tween-80) is reported as 112 % of control and the T/C (dose: 25.0 mg/kg/injection, schedule: Q01DX009 (ip), vehicle: saline with Tween-80) is reported as 86 % of control. For the same compound, the T/C (dose: 200.0 mg/kg/injection, schedule: Q01DX009 (ip), vehicle: saline with Tween-80) was 88 % of control.
For Oc1ccc(N=Cc2cccs2)cc1, the T/C (dose: 25.0 mg/kg/injection, schedule: Q01DX009 (ip), vehicle: Klucel (hydroxypropylcellulose) (HPC)) was 110 % of control, the T/C [4] was 100 % of control and the T/C [5] was 106 % of control. For the same compound, the T/C [6] was 105 % of control.
With c1ccc2c(c1)[As]=c1ccccc1=[As]2 (stereo unspecified) the T/C (dose: 0.79 mg/kg/injection, schedule: Q01DX009 (ip), vehicle: saline) was 107 % of control, the T/C (dose: 1.56 mg/kg/injection, schedule: Q01DX009 (ip), vehicle: saline) was 105 % of control and 118 % of control and the T/C (dose: 3.12 mg/kg/injection, schedule: Q01DX009 (ip), vehicle: saline) was 122 % of control. For the same compound, the T/C (dose: 6.25 mg/kg/injection, schedule: Q01DX009 (ip), vehicle: saline) was 173 % of control.
In the case of CC(=O)Nc1ccc(S(=O)(=O)Nc2ccc([N+](=O)[O-])cc2)cc1, the T/C (dose: 100.0 mg/kg/injection, schedule: Q04DX003 (ip), vehicle: saline with Tween-80) is reported as 90 % of control, the T/C (dose: 200.0 mg/kg/injection, schedule: Q04DX003 (ip), vehicle: saline with Tween-80) is reported as 86 % of control and the T/C (dose: 400.0 mg/kg/injection, schedule: Q04DX003 (ip), vehicle: saline with Tween-80) is reported as 100 % of control.
In the case of Cc1cc(=O)oc2c(C)c3oc4c(c3cc12)CN(C)CC4, the T/C (dose: 50.0 mg/kg/injection, schedule: Q01DX005 (ip), vehicle: Klucel (hydroxypropylcellulose) (HPC)) is reported as 100 % of control and the T/C (dose: 100.0 mg/kg/injection, schedule: Q01DX005 (ip), vehicle: Klucel (hydroxypropylcellulose) (HPC)) is reported as 117 % of control.
For OCCCOCCCOCCCOCCCO, the T/C (dose: 100.0 mg/kg/injection, schedule: Q01DX001 (ip), vehicle: saline) was 101 % of control, the T/C (dose: 200.0 mg/kg/injection, schedule: Q01DX001 (ip), vehicle: saline) was 108 % of control and the T/C (dose: 400.0 mg/kg/injection, schedule: Q01DX001 (ip), vehicle: saline) was 101 % of control.
With [CH3][Ge]([CH3])[CH3].[CH3][Ge]([CH3])[CH3] the T/C (dose: 50.0 mg/kg/injection, schedule: Q01DX009 (ip), vehicle: saline) was 95 % of control, the T/C (dose: 100.0 mg/kg/injection, schedule: Q01DX009 (ip), vehicle: saline) was 91 % of control and the T/C (dose: 200.0 mg/kg/injection, schedule: Q01DX009 (ip), vehicle: saline) was 97 % of control.

— PubChem BioAssay AID330 (DTP/NCI, 2004)
